The source of these data is patent US20200237715A1, “COX-2 Inhibitors for the Treatment of Ocular Disease” (priority 2019, published 2020).

“And” between values parts separate entries of the source, which are not always exact repeats. Equal entries are not always repeated. Where two headings read alike, the source gives them in different places.

The conditions of data set [1]: topical nepafenac, Cmax, cited from earlier work.
The nature of data set [2]: Rabbit study: subconjunctival DEPOT of the ethyl ester of SD-8381 in sesame oil, drug concentration in ocular tissues and plasma by LC-MS. The data set is classed as in vivo, DB rabbits. The procedure:
All reagents were obtained from Sigma-Aldrich with the exception that sesame oil was obtained from Sawall, 2965 Oakland Dr, Kalamazoo, Mich. The ethyl ester of SD-8381 was formulated in sesame oil as a saturated solution at room temperature. Saturation was assured by warming under water warm to the touch for 10 minutes and noting that upon returning to room temperature the powder was in equilibrium with what was apparently a crystalline form of the drug in that the small amount of remaining drug was now transparent (for example, the compound had clearly dissolved and crystallized out of solution). The formulation was checked for topical instillation irritancy. Two male DB rabbits were sedated with isoflurane vapors to effect. Eyes were anesthetized with topical proparacaine, the area treated with ophthalmic betadine and rinsed with sterile saline. The test article was injected (0.05 mL) as a subconjunctival DEPOT to two male DB rabbits, OU using a 29 g needle.
The rabbits were sacrificed at a 6-days. Samples collected were (bilateral) aqueous humor, iris plus ciliary body, cornea, conjunctiva, sclera, choroid, retina, lens, vitreous humor and plasma which were placed in tared vials and stored at −20° C. prior to analysis. Care was taken to not cross contaminate fields by dissecting high concentration tissues as separately as possible from other tissues.
The free acid of SD-8381 was formed enzymatically using ethyl 6,8-dichloro-2-(trifluoromethyl)-2H-chromene-3-carboxylate and porcine esterase (all reagents and chemicals are from Sigma-Aldrich). The reaction was initiated by adding 5 mg of compound in methanol to 8 mg of esterase in 250 μL of 50 mM potassium phosphate pH 8 buffer. The reaction proceeded at 37° C. and was complete after 3 hours. Conversion of the […] to the free acid was monitored using HPLC-UV with 254 nm detection and confirmed by flow injection analysis using a Waters Quattro Micro mass spectrometer in negative ion mode at unit resolution. SD-8381 free acid was purified by HPLC fraction collection using a 4.6×250 mm Agilent Eclipse XDB-C18 column using 0.1% formic acid/H2O/acetonitrile mobiles phases. Fractions containing the free acid were dried in a weighed tube using a SpeedVac concentrator.
Free acid SD-8381 was reconstituted in methanol to establish w/v concentration standards for LC-MS analysis. Analytical standards were prepares using EDTA mouse plasma from BioVT. A dilution series of free acid SD-8381 in methanol were spiked into mouse plasma and each concentration was combined with 3 volumes of methanol containing 1 μM diclofenac as a surrogate internal standard as no stable-isotope labeled internal standard (SIL-IS) of SD-8381 is currently available. Standards and plasma blanks were vortex mixed and centrifuged at 13K×g for 5 minutes. Supernatant was transferred to glass insert vials and immediately analyzed by LC-MS analysis. Tissue samples were homogenized using a GE Healthcare sample grinding kit #80-6483-37 and 1 volume of DPBS containing 50% methanol. Proteins were precipitated using 2 additional volumes of methanol and vortex mixing for 5 minutes. Samples were centrifuged at 13K×g for 5 minutes. Supernatant was removed and dried in a SpeedVac concentrator under medium heat. Sample was reconstituted using methanol containing 1 uM Diclofenac. Samples were analyzed using a Waters nanoAcquity UPLC in-line with a high-resolution Waters Synapt G2-S mass spectrometer via an electrospray ion source. UPLC separation of used performed using a 0.375 mm×10 cm Waters XBridge C18 3.5 u column and a flow rate of 10 μL per minute. Mobile phases were 0.1% formic acid in water as mobile phase A and 0.1% formic acid in acetonitrile as mobile phase B. Gradient elution was accomplished with 1% B initial sample loading with ramping to 95% B at 3 minutes, holding at 95% B for 5 minutes, and returning to 1% B at 8.1 minutes. Total run time was 12 minutes and 5 μL of sample was injected per analysis. […]

A further data set can be described thus: Plasma protein binding. The data set is classed as in vitro ADME.
A short description of data set [3]: Dexamethasone periocular DEPOT (sub-Tenon injection), retina-choroid concentrations, literature comparison. The data set is classed as in vivo. To be noted: dexamethasone sub-Tenon DEPOT versus SD-8381 DEPOT. The procedure: For comparison, the concentrations in the retina-choroid for a DEPOT of a similar lipophilic small molecule, dexamethasone, when placed very close to the retina (sub-Tenon injection) were 0.31 and 0.93 μM [Huang Z, Yang W, Zong Y, Qiu S, Chen X, Sun X, Zhou Y, Xie Z, and Gao Q. A study of the dexamethasone sodium phosphate release properties from a periocular capsular drug delivery system. Drug Delivery 2016:23; 839-847]. […] Also, these dexamethasone data are for a situation where drug delivery has been optimized.

For data set [4] the following is noted: DEPOT sub-Tenon's sac, steady-state, cited from earlier work.
[5] abbreviates: DEPOT, steady-state, 6 days, high value of the same subject dropped.
[6] abbreviates: SD-8381 free acid measured, subconjunctival DEPOT 0.05 mL OU of ethyl ester in sesame oil, rabbits sacrificed at 6 days.

Regarding `NC(=O)Cc1cccc(C(=O)c2ccccc2)c1N` [Nepafenac, 2-amino-3-benzoylbenzeneacetamide], in data set [1], the Anterior choroid concentration entry was “(0.71) μM”, the Anterior retina concentration entry is given as “(0.11) μM”, the Posterior choroid concentration is 0.055 µM and the Posterior retina concentration was 0.0027 µM. Moreover, in data set [1] (listed as nepafenac), the Anterior choroid concentration is 0.714 µM, the Anterior retina concentration is 0.110 µM, the Posterior choroid concentration is 0.0551 µM and the Posterior retina concentration is 0.00272 µM.

Consider `O=C(O)C1=Cc2cc(Cl)cc(Cl)c2OC1C(F)(F)F` (stereo not drawn) [SD-8381, 6.8-Dichloro-2-trifluoromethyl-2H-1-benzopyran-3-carboxylic acid], for which, in data set [2] (DEPOT, steady-state, 6 days), the “Choroid concentration, mean (n = 4)” value was 96 (n = 4) μM and the “Retina concentration, mean (n = 4)” value is on record as 13 (n = 4) μM. In addition, in data set [2] (setting [5]), the “Choroid concentration, average with high value dropped (n = 3)” value is 20.9 μM and 21 (n = 3)* μM; the “Retina concentration, average with high value dropped (n = 3)” value is 5.17 μM and 5.2 (n = 3)* μM. Also, the “Retina-choroid concentration at steady-state compared with nepafenac following topical administration” value in data set [2] (SD-8381 DEPOT versus literature nepafenac) is reported as “approximately two orders of magnitude higher”. Further, in data set [2] (setting [6]), the “Choroid concentration, individual values” was 322 µM and 9.78 µM and 2.43 µM and 50.4 µM; the “Retina concentration, individual values” is 36.8 µM and 2.01 µM and 9.14 µM and 4.37 µM. Also, the “Plasma concentration relative to ocular tissues (fold less)” value in data set [2] (plasma versus ocular tissues) is listed as 10^2-10^4. The “Binding to plasma proteins” value in “Plasma protein binding” is “highly bound to plasma proteins”.

With `Nc1c(CC(=O)O)cccc1C(=O)c1ccccc1` [Amfenac, 2-amino-3-benzoylbenzeneacetic acid], in data set [1], the Anterior choroid concentration result was “(0.47) μM”, the Anterior retina concentration entry is recorded as “(0.011) μM”, the Posterior choroid concentration was 0.042 µM and the Posterior retina concentration was 0.00077 µM. In data set [1] (listed as amfenac), the Anterior choroid concentration is 0.468 µM, the Anterior retina concentration is 0.011 µM, the Posterior choroid concentration was 0.0418 µM and the Posterior retina concentration was 0.000765 µM.

Consider `CCOC(=O)C1=Cc2cc(Cl)cc(Cl)c2OC1C(F)(F)F` (stereo not drawn) [ethyl ester of SD-8381, ethyl 6,8-dichloro-2-(trifluoromethyl)-2H-chromene-3-carboxylate], for which the “Adverse events (excessive scratching, redness, other signs of irritation and pain)” value in data set [2] (subconjunctival DEPOT 0.05 mL OU, saturated solution in sesame oil, two male DB rabbits) is “No apparent adverse events”.

For the compound `C[C@@H]1C[C@H]2[C@@H]3CCC4=CC(=O)C=C[C@]4(C)[C@@]3(F)[C@@H](O)C[C@]2(C)[C@@]1(O)C(=O)CO` [Dexamethasone, dexamethasone], the “Retina-choroid concentration compared with SD-8381” value in data set [3] was “almost two orders of magnitude less”. For the same compound, in data set [4], the Choroid concentration is 0.92 µM and the Retina concentration was 0.31 µM. Besides, in data set [4] (listed as dexamethasone), the Choroid concentration was 0.93 µM.
